Measurements as given in patent publication US20100286155A1, “ADRENOCORTICAL CARCINOMA TREATMENT” (OSI PHARMACEUTICALS, INC., priority 2009, published 2010).

What was measured:
[1] = biological target: T1, IGF-1R (Homo sapiens, UniProt P08069); assay: pIGF-1R inhibition in H295R tumor cells, RTK capture array; assay type: cell-based; conditions: 3 uM, 24 hours
T1 construct: endogenous in cells; host or cells: H295R ACC tumor cell line
Description: (§1) Measurement of pIGF-1R and pIR was determined by RTK capture array (ARY001, R&D Systems), and measurement of pAkt was determined by WB.

[2] = tested on: pAkt; assay: pAkt inhibition in H295R tumor cells, WB; assay type: cell-based, human; conditions: 3 uM, 24 hours
Description: as §1

[3] = tested on: H295R ACC tumor cell line; assay: H295R ACC tumor cell line OSI-906 sensitivity: proliferation (Cell Titer Glo) and apoptosis (Caspase Glo); assay type: cell-based, human; conditions: varying concentrations; proliferation at 72 h, apoptosis at 48 h after dosing
[4] = tested on: adrenocortical carcinoma (ACC); assay: Phase I clinical trials of OSI-906 in ACC patients (RECIST, CT, FDG-PET); assay type: in vivo, human
Description: As of 14 Apr. 2009 in two phase I clinical trials, seven patients have been enrolled with ACC.
Patient 1 is a ACC patient, previously treated with six cycles of etoposide, cisplatin, and doxorubicin and mitotane from Feb. 2008 to Jul. 2008. […] 1, 2008, 450 mg/day, escalating to 600 mg, on days 1-3 of each 14 day period. At 8 weeks of treatment, CT scan was reported as stable. […] The overall reduction in RECIST measurement of target lesions was 43%. Subsequent scans indicated incremental response, including a scan showing a partial response of 72% decrease by RECIST compared to baseline. […] ACC is typically thought to be an FDG-avid tumor.
Objective Response Criteria (RECIST)
Complete Response: Disappearance of all clinical and radiological evidence of tumor (both target and nontarget) including normalization of elevated tumor markers at baseline, if documented. The patient must be free of all tumor-related symptoms. Complete Response must be confirmed at a second tumor assessment not less than 28 days apart from the assessment at which CR was observed.
Partial Response: At least a 30% decrease in the sum of Longest Diameter (LD) of target lesions taking as reference the baseline sum LD. Partial Response must be confirmed at a second tumor assessment not less than 28 days apart from the assessment at which PR was observed.
Stable Disease: Steady state of disease. Neither sufficient shrinkage to qualify for PR nor sufficient increase to qualify for progressive disease. Stable disease must be documented to be present at least 28 days from the start of the therapy. There may be no appearance of new lesions for this category.
Progressive Disease: At least a 20% increase in the sum of LD of measured lesions taking as references the smallest sum LD recorded since the treatment started. Appearance of new lesions will also constitute progressive disease. In exceptional circumstances, unequivocal progression of nontarget lesions may be accepted as evidence of disease progression (DP).
All patients who have measurable disease according to RECIST, who received at least 2 treatment periods of therapy, and who have their disease re-evaluated will be evaluable for response. All sites of disease should be followed as either target or nontarget lesions, as categorized at baseline. All measurable lesions up to a maximum of 5 lesions per organ or 10 lesions in total, representative of all involved organs, should be identified as target lesions, while all other lesions (either additional measurable lesions or nonmeasurable lesions) should be classified as nontarget lesions. To ensure comparability, the baseline radiology/scans and subsequent radiology/scans to assess response should be performed using identical techniques (i.e., scans performed immediately following bolus contrast administration should be made with a standard volume of contrast, the identical contrast agent, and preferably the same scanner). The same method, radiological or physical, should be employed and assessed by the same individual on each occasion.

[5] = Patient 1, 450 mg/day escalating to 600 mg, days 1-3 of each 14 day period
[6] = seven ACC patients enrolled in two phase I trials, as of 14 Apr. 2009

T1 sequence (P08069 31-1367): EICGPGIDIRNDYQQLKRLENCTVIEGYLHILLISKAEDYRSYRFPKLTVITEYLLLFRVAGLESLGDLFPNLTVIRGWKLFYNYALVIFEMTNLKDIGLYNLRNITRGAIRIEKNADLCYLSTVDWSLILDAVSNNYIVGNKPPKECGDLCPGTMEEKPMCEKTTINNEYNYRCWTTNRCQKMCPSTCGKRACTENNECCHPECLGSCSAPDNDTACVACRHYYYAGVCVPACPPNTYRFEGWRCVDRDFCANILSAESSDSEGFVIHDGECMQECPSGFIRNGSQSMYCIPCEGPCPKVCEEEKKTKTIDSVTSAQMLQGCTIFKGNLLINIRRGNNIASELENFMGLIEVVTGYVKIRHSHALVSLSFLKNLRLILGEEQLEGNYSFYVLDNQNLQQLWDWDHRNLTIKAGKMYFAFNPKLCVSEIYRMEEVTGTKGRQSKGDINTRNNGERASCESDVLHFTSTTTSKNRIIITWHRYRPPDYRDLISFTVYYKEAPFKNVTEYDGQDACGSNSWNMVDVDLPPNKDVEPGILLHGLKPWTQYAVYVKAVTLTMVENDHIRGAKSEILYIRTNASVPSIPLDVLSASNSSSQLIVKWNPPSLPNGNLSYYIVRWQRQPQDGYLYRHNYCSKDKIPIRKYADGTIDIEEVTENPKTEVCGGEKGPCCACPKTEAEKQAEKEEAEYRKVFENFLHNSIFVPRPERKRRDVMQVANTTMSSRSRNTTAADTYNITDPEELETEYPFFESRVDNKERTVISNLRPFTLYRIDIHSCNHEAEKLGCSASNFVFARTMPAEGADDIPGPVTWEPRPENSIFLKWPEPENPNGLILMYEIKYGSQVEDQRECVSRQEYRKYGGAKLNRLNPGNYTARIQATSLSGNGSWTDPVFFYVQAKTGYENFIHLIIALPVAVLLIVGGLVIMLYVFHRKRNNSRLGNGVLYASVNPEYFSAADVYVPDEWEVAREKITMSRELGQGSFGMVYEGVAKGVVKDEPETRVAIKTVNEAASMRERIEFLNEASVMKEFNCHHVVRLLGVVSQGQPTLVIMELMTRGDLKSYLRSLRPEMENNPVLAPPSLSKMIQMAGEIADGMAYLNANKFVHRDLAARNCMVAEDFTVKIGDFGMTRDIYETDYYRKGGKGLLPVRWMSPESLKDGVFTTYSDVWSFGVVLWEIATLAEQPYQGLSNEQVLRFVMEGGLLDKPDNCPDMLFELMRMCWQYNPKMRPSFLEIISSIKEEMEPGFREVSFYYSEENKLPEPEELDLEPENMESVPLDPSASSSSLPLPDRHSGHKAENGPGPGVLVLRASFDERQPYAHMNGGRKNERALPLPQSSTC

## C[C@]1(O)C[C@@H](c2nc(-c3ccc4ccc(-c5ccccc5)nc4c3)c3c(N)nccn32)C1 [OSI-906, cis-3-[8-amino-1-(2-phenyl-quinolin-7-yl)-imidazo[1,5-a]pyrazin-3-yl]-1-methyl-cyclobutanol]
[1]
  inhibition of phosphorylation of IGF-1R (pIGF-1R): inhibits phosphorylation of both receptors
[2]
  inhibition of pAkt: inhibition of pAkt
[3]
  sensitivity of H295R ACC tumor cell line (proliferation and apoptosis): exhibits sensitivity to OSI-906
[4]; [5]
  CT scan result at 8 weeks of treatment: stable
  CT scan result at 16 weeks: decrease in primary lesion as well as improvement in all pulmonary lesions
[4]; Patient 1, 30 weeks into treatment, residual primary tumor and two remaining metastases
  18-FDG-PET scan tumor uptake of tracer: no tumor uptake of the tracer
[4]; Patient 1, at 16 weeks
  overall reduction in RECIST measurement of target lesions: 43%
[4]; Patient 1, subsequent scan
  partial response, decrease by RECIST compared to baseline: 72%
[4]; Patient 1, up to 56 weeks
  drug-related toxicities: No drug-related toxicities have been observed
[4]; [6]
  patients with partial response: One had partial response
  patients with stable disease: two had stable disease for >6 months
  patients with symptomatic response: one had a dramatic, short-lived sympitomatic response
